Here are results for one compound from US20250002450A1, “CATIONIC STEROID COMPOUNDS, METHOD OF OBTAINING THEREOF, FORMULATIONS COMPRISING THEREOF AND THEIR USES” (UNIVERSIDADE DO PORTO, priority 2021, published 2025).

One experiment deals with E. coli ATCC 25922. As to the kind of experiment: Enzymatic/metabolic activity, MTT assay. It is filed as cell-based, Escherichia coli. As for the experimental part: To determine whether compound 1 could also affect enzymatic activity, 2-(4,5-dimethyl-2-thiazolyl)-3,5-diphenyl-2H-tetrazolium bromide (MTT) assay was performed. This assay can also be used as an indirect measure of cellular viability, as tetrazolium salts are reduced to purple formazan by metabolically active cells. E. coli ATCC 25922 cells were treated with compound 1 and COL and AMP were used as controls, as described above. Measurements were made at 0, 1, and 18 h.
Enzymatic activity was evaluated by the MTT assay, as previously described, with some modifications. Cell suspensions of E. coli ATCC 25922 were prepared as described above, as well as test conditions and controls. At each time point (0, 1, and 18 h), 500 μL aliquots were collected, centrifuged at 3500 rpm for 10 min, the supernatant was removed, and 300 μL of MTT solution (0.5 mg/mL in CAMHB, at 36 degrees C.) (Thiazolyl Blue Tetrazolium Bromide, Alfa Aesar, Ward Hill, MA, USA) were added. After a 30 min incubation at 36° C., the insoluble formazan product resulting from the conversion of MTT by metabolically active cells was solubilized with 300 μL of DMSO. 100 μL of each sample were transferred in duplicate to the wells of a microtiter plate and the extent of the reduction of MTT to formazan was quantified by measuring the absorbance at 570 nm (Thermo Scientific Multiskan® EX, Thermo Fisher Scientific, Waltham, MA, USA). Three independent assays were performed in duplicate, and results are expressed as a percentage of untreated control.

Experiment [1] relates to Saprolegnia parasitica CBS 223.65. Kind of experiment: MIC/MLC broth microdilution in GY broth. It is filed as cell-based. As to the method:
The antifungal activity of compound 1 was evaluated for a wide range of fungal species, covering yeasts and filamentous fungi, including dermatophytes. […] This antimicrobial effect was fungicidal, with minimal lethal concentrations (MLC) being equal to, or one or two-fold higher than the respective MIC. Twenty-three fungal strains were used in this study, including reference strains and clinical isolates of yeasts and filamentous fungi. Yeast strains included reference strains (ATCC—American Type Culture Collection and CECT—Colección Española de Cultivos Tipo) and clinical isolates: C. albicans ATCC 10231, Candida krusei ATCC 6258, C. albicans H37, C. albicans FF172, C. albicans FF176, C. albicans DSY294, C. albicans DSY296, C. glabrata DSY562, C. glabrata DSY565 and Cryptococcus neoformans CECT 1078. […]
Each well was then inoculated with approximately 1 mm^2 of mycelium. […] After 5-7 days of incubation at 24° C., MIC was recorded as the lowest concentration that prevented obvious mycelial growth in comparison to the compound-free controls. […]

The test system of another experiment is S. aureus ATCC 29213. As to the kind of experiment: Bacterial biofilm formation inhibition (crystal violet). It is filed as cell-based, Staphylococcus aureus. As to conditions: 2×MIC and MIC, 24 h. As for the experimental part:
In an embodiment, the antibiofilm activity of compound 1 was performed as follows. Given its bactericidal effect, the impact of compound 1 on the biofilm formation of reference strains was studied.
The effect of compound 1 on bacterial biofilm formation was evaluated through quantification of total biomass, using the crystal violet method, as previously described ([FIG. 6]). […] A control with an appropriate concentration of DMSO, as well as a negative control (TSB alone) was included. Sterile 96-well flat-bottomed untreated polystyrene microtiter plates were used. After a 24 h incubation at 37 degrees C., the biofilms were heat-fixed for 1 h at 60 degrees C. and stained with 0.5% (v/v) crystal violet (Quimica Clinica Aplicada, Amposta, Spain) for 5 min. The stain was resolubilized with 33% (v/v) acetic acid (Acetic acid 100%, AppliChem, Darmstadt, Germany) and the biofilm biomass was quantified by measuring the absorbance of each sample at 570 nm in a microplate reader (Thermo Scientific Multiskan® EX, Thermo Fisher Scientific, Waltham, MA, USA). The background absorbance (TSB or TSB+1% glucose without inoculum) was subtracted from the absorbance of each sample and the data are presented as a percentage of control. Three independent assays were performed for reference strains, with triplicates for each experimental condition.

On to `C[C@H](CCC(=O)NCCN)[C@H]1CC[C@H]2[C@@H]3CC[C@@H]4C[C@H](O)CC[C@]4(C)[C@H]3C[C@H](O)[C@]12C` [Compound 1, (R)—N-(2-aminoethyl)-4-((3R,5R,8R,9S,10S,12S,13R,14S,17R)-3,12-dihydroxy-10,13-dimethylhexadecahydro-1H-cyclopenta[a]phenanthren-17-yl) pentanamida], for which the “metabolic activity (MTT) vs untreated control” value in the experiment with E. coli ATCC 25922 (32 μg/mL, after 1 and 18 h) is on record as “decrease in enzymatic activity”. Moreover, the “metabolic activity (MTT) vs untreated control” value with E. coli ATCC 25922 (64 μg/mL, 0, 1, 18 h) is given as “significantly reduced at all time points”. Also, in experiment [1], the MIC was in the range of 32 to 64 µg/mL and the MLC lay in the range of 32 to 64 µg/mL. The “biofilm formation (in words)” value in the experiment with S. aureus ATCC 29213 is “significantly inhibited”.
